Laboratory results published in PubChem BioAssay (NCI).
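Interpolation was linear, between the two tested concentrations surrounding the appropriate level; five concentrations were tested over 48 hours in 96-well plates. The concentration for full growth arrest is given as TGI.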

Assays:
Assay in all cases: NCI tumour cell line growth inhibition, 48 h
786-0 renal = test system: 786-0 renal
A498 renal = test system: A498 renal
A549 NSCLC = test system: A549 NSCLC
ACHN renal = test system: ACHN renal
BT-549 breast = test system: BT-549 breast
CAKI-1 renal = test system: CAKI-1 renal
CCRF-CEM leukemia = test system: CCRF-CEM leukemia
COLO 205 colon = test system: COLO 205 colon
DU-145 prostate = test system: DU-145 prostate
EKVX NSCLC = test system: EKVX NSCLC
HCC-2998 colon = test system: HCC-2998 colon
HCT-116 colon = test system: HCT-116 colon
HCT-15 colon = test system: HCT-15 colon
HL-60(TB) leukemia = test system: HL-60(TB) leukemia
HOP-62 NSCLC = test system: HOP-62 NSCLC
HOP-92 NSCLC = test system: HOP-92 NSCLC
HS 578T breast = test system: HS 578T breast
HT29 colon = test system: HT29 colon
IGROV1 ovarian = test system: IGROV1 ovarian
K-562 leukemia = test system: K-562 leukemia
KM12 colon = test system: KM12 colon
LOX IMVI melanoma = test system: LOX IMVI melanoma
M14 melanoma = test system: M14 melanoma
MALME-3M melanoma = test system: MALME-3M melanoma
MCF7 breast = test system: MCF7 breast
MDA-MB-231 breast = test system: MDA-MB-231 breast
MDA-MB-435 = test system: MDA-MB-435
MDA-N = test system: MDA-N
MOLT-4 leukemia = test system: MOLT-4 leukemia
NCI-H226 lung = test system: NCI-H226 lung
NCI-H23 lung = test system: NCI-H23 lung
NCI-H460 lung = test system: NCI-H460 lung
NCI-H522 lung = test system: NCI-H522 lung
NCI/ADR-RES ovarian = test system: NCI/ADR-RES ovarian
OVCAR-3 ovarian = test system: OVCAR-3 ovarian
OVCAR-4 ovarian = test system: OVCAR-4 ovarian
OVCAR-5 ovarian = test system: OVCAR-5 ovarian
OVCAR-8 ovarian = test system: OVCAR-8 ovarian
PC-3 prostate = test system: PC-3 prostate
RPMI-8226 leukemia = test system: RPMI-8226 leukemia
RXF 393 renal = test system: RXF 393 renal
SF-268 CNS = test system: SF-268 CNS
SF-295 CNS = test system: SF-295 CNS
SF-539 CNS = test system: SF-539 CNS
SK-MEL-2 melanoma = test system: SK-MEL-2 melanoma
SK-MEL-28 melanoma = test system: SK-MEL-28 melanoma
SK-MEL-5 melanoma = test system: SK-MEL-5 melanoma
SK-OV-3 ovarian = test system: SK-OV-3 ovarian
SN12C renal = test system: SN12C renal
SNB-19 CNS = test system: SNB-19 CNS
SNB-75 CNS = test system: SNB-75 CNS
SR leukemia = test system: SR leukemia
SW-620 colon = test system: SW-620 colon
T-47D breast = test system: T-47D breast
TK-10 renal = test system: TK-10 renal
U251 CNS = test system: U251 CNS
UACC-257 melanoma = test system: UACC-257 melanoma
UACC-62 melanoma = test system: UACC-62 melanoma
UO-31 renal = test system: UO-31 renal

CCOC(=O)C(Cc1cccn1C(=O)OC(C)(C)C)[N+](=O)[O-] (centres undefined)
TGI (786-0 renal): 51.3 µM
TGI (A498 renal): 40.6 µM
TGI (A549 NSCLC): > 100 µM
TGI (ACHN renal): 47.5 µM
TGI (BT-549 breast): > 100 µM
TGI (CAKI-1 renal): 64.5 µM
TGI (CCRF-CEM leukemia): 35.4 µM
TGI (COLO 205 colon): 41.3 µM
TGI (DU-145 prostate): 70.2 µM
TGI (EKVX NSCLC): > 100 µM
TGI (HCC-2998 colon): 42.4 µM
TGI (HCT-116 colon): 51.3 µM
TGI (HCT-15 colon): 62.3 µM
TGI (HL-60(TB) leukemia): 48.1 µM
TGI (HOP-62 NSCLC): 56.7 µM
TGI (HOP-92 NSCLC): 74.2 µM
TGI (HS 578T breast): 75.9 µM
TGI (HT29 colon): 50.3 µM
TGI (IGROV1 ovarian): 43.3 µM
TGI (K-562 leukemia): 79.6 µM
TGI (KM12 colon): 55.5 µM
TGI (LOX IMVI melanoma): 32.1 µM
TGI (M14 melanoma): 40.9 µM
TGI (MALME-3M melanoma): 75.4 µM
TGI (MCF7 breast): > 100 µM
TGI (MDA-MB-231 breast): 44.7 µM
TGI (MDA-MB-435): 77.1 µM
TGI (MDA-N): 90.4 µM
TGI (MOLT-4 leukemia): 50.4 µM
TGI (NCI-H226 lung): 67.3 µM
TGI (NCI-H23 lung): > 100 µM
TGI (NCI-H460 lung): 53.4 µM
TGI (NCI-H522 lung): 40.8 µM
TGI (NCI/ADR-RES ovarian): > 100 µM
TGI (OVCAR-3 ovarian): 98.2 µM
TGI (OVCAR-4 ovarian): 89 µM
TGI (OVCAR-5 ovarian): 63.2 µM
TGI (OVCAR-8 ovarian): 93 µM
TGI (PC-3 prostate): 45.3 µM
TGI (RPMI-8226 leukemia): 45.1 µM
TGI (RXF 393 renal): 34.4 µM
TGI (SF-268 CNS): > 100 µM
TGI (SF-295 CNS): 99.4 µM
TGI (SF-539 CNS): 58.7 µM
TGI (SK-MEL-2 melanoma): 53.9 µM
TGI (SK-MEL-28 melanoma): 69 µM
TGI (SK-MEL-5 melanoma): 37.9 µM
TGI (SK-OV-3 ovarian): > 100 µM
TGI (SN12C renal): 62.9 µM
TGI (SNB-19 CNS): 75.5 µM
TGI (SNB-75 CNS): 54.9 µM
TGI (SR leukemia): 45 µM
TGI (SW-620 colon): 59.2 µM
TGI (T-47D breast): > 100 µM
TGI (TK-10 renal): 50.3 µM
TGI (U251 CNS): 50.9 µM
TGI (UACC-257 melanoma): 59.3 µM
TGI (UACC-62 melanoma): 42.9 µM
TGI (UO-31 renal): 39.3 µM
